Experimental data taken from PubChem BioAssay (NCI).
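GI50 marks 50% less growth. Definition used: TGI = concentration required for complete inhibition of growth.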

Key:
Experiment in all cases: NCI anticancer screen, dose series, 384-well format
OVCAR-3 ovarian = test system: OVCAR-3 ovarian
NCI-H322M lung = test system: NCI-H322M lung
CAKI-1 renal = test system: CAKI-1 renal
SF-539 CNS = test system: SF-539 CNS
HOP-62 NSCLC = test system: HOP-62 NSCLC
U251 glioblastoma = test system: U251 glioblastoma
PC-3 prostate = test system: PC-3 prostate
NCI-H522 lung = test system: NCI-H522 lung
NCI-H226 lung = test system: NCI-H226 lung
HT29 colon = test system: HT29 colon
OVCAR-4 ovarian = test system: OVCAR-4 ovarian
SF-268 CNS = test system: SF-268 CNS
RPMI-8226 leukemia = test system: RPMI-8226 leukemia
HOP-92 NSCLC = test system: HOP-92 NSCLC
SK-MEL-5 melanoma = test system: SK-MEL-5 melanoma
SW-620 colon = test system: SW-620 colon
SK-OV-3 ovarian = test system: SK-OV-3 ovarian
T-47D breast = test system: T-47D breast
KM12 colon = test system: KM12 colon
TK-10 renal = test system: TK-10 renal
HS 578T breast = test system: HS 578T breast
A549 NSCLC = test system: A549 NSCLC
HCT-116 colon = test system: HCT-116 colon
SK-MEL-2 melanoma = test system: SK-MEL-2 melanoma
K-562 leukemia = test system: K-562 leukemia
NCI-H23 lung = test system: NCI-H23 lung
UACC-62 melanoma = test system: UACC-62 melanoma
SNB-75 CNS = test system: SNB-75 CNS
HL-60(TB) leukemia = test system: HL-60(TB) leukemia
SK-MEL-28 melanoma = test system: SK-MEL-28 melanoma
ACHN renal = test system: ACHN renal
MALME-3M melanoma = test system: MALME-3M melanoma
MDA-MB-468 breast = test system: MDA-MB-468 breast
NCI/ADR-RES ovarian = test system: NCI/ADR-RES ovarian
DU-145 prostate = test system: DU-145 prostate
SN12C renal = test system: SN12C renal
UACC-257 melanoma = test system: UACC-257 melanoma
NCI-H460 NSCLC = test system: NCI-H460 NSCLC
MDA-MB-435 melanoma = test system: MDA-MB-435 melanoma
IGROV1 ovarian = test system: IGROV1 ovarian
OVCAR-5 ovarian = test system: OVCAR-5 ovarian
A498 renal = test system: A498 renal
SNB-19 CNS = test system: SNB-19 CNS
OVCAR-8 ovarian = test system: OVCAR-8 ovarian
MDA-MB-231 breast = test system: MDA-MB-231 breast
SR leukemia = test system: SR leukemia
EKVX NSCLC = test system: EKVX NSCLC

**Q.** Which results are given for Cn1cc(CNCC2CCN(c3ncc(C(=O)NO)cn3)CC2)c2ccccc21?
**A.** GI50 (OVCAR-3 ovarian): 0.0122 µM; TGI (OVCAR-3 ovarian): 0.0286 µM; GI50 (NCI-H322M lung): 0.0123 µM; TGI (NCI-H322M lung): 0.0405 µM; GI50 (CAKI-1 renal): < 0.0112 µM; TGI (CAKI-1 renal): 0.026 µM; GI50 (SF-539 CNS): 0.0139 µM; TGI (SF-539 CNS): 0.053 µM; GI50 (HOP-62 NSCLC): < 0.0118 µM; TGI (HOP-62 NSCLC): 0.0621 µM; GI50 (U251 glioblastoma): 0.0113 µM; TGI (U251 glioblastoma): 0.0241 µM; GI50 (PC-3 prostate): < 0.0123 µM; TGI (PC-3 prostate): 0.0462 µM; GI50 (NCI-H522 lung): < 0.01 µM; TGI (NCI-H522 lung): 0.0208 µM; GI50 (NCI-H226 lung): 0.0319 µM; TGI (NCI-H226 lung): 0.115 µM; GI50 (HT29 colon): 0.01 µM; TGI (HT29 colon): 0.0216 µM; GI50 (OVCAR-4 ovarian): 0.0189 µM; TGI (OVCAR-4 ovarian): 0.0466 µM; GI50 (SF-268 CNS): < 0.0104 µM; TGI (SF-268 CNS): 0.0244 µM; GI50 (RPMI-8226 leukemia): < 0.01 µM; TGI (RPMI-8226 leukemia): < 0.01 µM; GI50 (HOP-92 NSCLC): < 0.0122 µM; TGI (HOP-92 NSCLC): 0.0317 µM; GI50 (SK-MEL-5 melanoma): < 0.01 µM; TGI (SK-MEL-5 melanoma): < 0.01 µM; GI50 (SW-620 colon): 0.0129 µM; TGI (SW-620 colon): 0.0262 µM; GI50 (SK-OV-3 ovarian): 0.0155 µM; TGI (SK-OV-3 ovarian): 0.0329 µM; GI50 (T-47D breast): < 0.01 µM; TGI (T-47D breast): 0.0155 µM; GI50 (KM12 colon): 0.0167 µM; TGI (KM12 colon): 0.0636 µM; GI50 (TK-10 renal): 0.0122 µM; TGI (TK-10 renal): 0.0383 µM; GI50 (HS 578T breast): < 0.0104 µM; TGI (HS 578T breast): 0.0224 µM; GI50 (A549 NSCLC): 0.0119 µM; TGI (A549 NSCLC): 0.0321 µM; GI50 (HCT-116 colon): < 0.01 µM; TGI (HCT-116 colon): 0.0157 µM; GI50 (SK-MEL-2 melanoma): < 0.01 µM; TGI (SK-MEL-2 melanoma): 0.0106 µM; GI50 (K-562 leukemia): < 0.0105 µM; TGI (K-562 leukemia): 0.0226 µM; GI50 (NCI-H23 lung): 0.0131 µM; TGI (NCI-H23 lung): 0.0421 µM; GI50 (UACC-62 melanoma): < 0.01 µM; TGI (UACC-62 melanoma): 0.0149 µM; GI50 (SNB-75 CNS): 0.0101 µM; TGI (SNB-75 CNS): 0.0461 µM; GI50 (HL-60(TB) leukemia): < 0.01 µM; TGI (HL-60(TB) leukemia): < 0.01 µM; GI50 (SK-MEL-28 melanoma): < 0.011 µM; TGI (SK-MEL-28 melanoma): 0.0276 µM; GI50 (ACHN renal): 0.0143 µM; TGI (ACHN renal): 0.0349 µM; GI50 (MALME-3M melanoma): < 0.01 µM; TGI (MALME-3M melanoma): < 0.0145 µM; GI50 (MDA-MB-468 breast): < 0.01 µM; TGI (MDA-MB-468 breast): < 0.01 µM; GI50 (NCI/ADR-RES ovarian): 0.0949 µM; TGI (NCI/ADR-RES ovarian): 0.329 µM; GI50 (DU-145 prostate): < 0.01 µM; TGI (DU-145 prostate): 0.0229 µM; GI50 (SN12C renal): 0.0141 µM; TGI (SN12C renal): 0.0297 µM; GI50 (UACC-257 melanoma): < 0.01 µM; TGI (UACC-257 melanoma): 0.0236 µM; GI50 (NCI-H460 NSCLC): < 0.0111 µM; TGI (NCI-H460 NSCLC): 0.0371 µM; GI50 (MDA-MB-435 melanoma): 0.0121 µM; TGI (MDA-MB-435 melanoma): 0.0297 µM; GI50 (IGROV1 ovarian): 0.0102 µM; TGI (IGROV1 ovarian): 0.0237 µM; GI50 (OVCAR-5 ovarian): < 0.01 µM; TGI (OVCAR-5 ovarian): 0.0236 µM; GI50 (A498 renal): 0.0128 µM; TGI (A498 renal): 0.0293 µM; GI50 (SNB-19 CNS): 0.0173 µM; TGI (SNB-19 CNS): 0.0457 µM; GI50 (OVCAR-8 ovarian): < 0.01 µM; TGI (OVCAR-8 ovarian): 0.0213 µM; GI50 (MDA-MB-231 breast): 0.0143 µM; TGI (MDA-MB-231 breast): 0.0372 µM; GI50 (SR leukemia): < 0.01 µM; TGI (SR leukemia): < 0.01 µM; GI50 (EKVX NSCLC): 0.0304 µM; TGI (EKVX NSCLC): 0.303 µM
